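Where inhibition never reached the appropriate level, the endpoint shown equals the highest concentration tested. Otherwise, values were interpolated linearly from a five-concentration, 48-hour dose response in 96-well plates. Abbreviation: GI50, concentration required for 50% inhibition of growth. TGI denotes the concentration required for complete inhibition of growth.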
Experiments:
Experiment in all cases: NCI-60 cell line screen, 48 h
IGROV1 ovarian = tested on: IGROV1 ovarian
HCT-15 colon = tested on: HCT-15 colon
HT29 colon = tested on: HT29 colon
MDA-MB-231 breast = tested on: MDA-MB-231 breast
OVCAR-3 ovarian = tested on: OVCAR-3 ovarian
CCRF-CEM leukemia = tested on: CCRF-CEM leukemia
HS 578T breast = tested on: HS 578T breast
HOP-62 NSCLC = tested on: HOP-62 NSCLC
RXF 393 renal = tested on: RXF 393 renal
HCC-2998 colon = tested on: HCC-2998 colon

Row | SMILES | TGI (IGROV1 ovarian) [µM] | TGI (HCT-15 colon) [µM] | TGI (HT29 colon) [µM] | TGI (MDA-MB-231 breast) [µM] | TGI (OVCAR-3 ovarian) [µM] | TGI (CCRF-CEM leukemia) [µM] | TGI (HS 578T breast) [µM] | TGI (HOP-62 NSCLC) [µM] | TGI (RXF 393 renal) [µM] | TGI (HCC-2998 colon) [µM] | GI50 (IGROV1 ovarian) [µM] | GI50 (HCT-15 colon) [µM] | GI50 (CCRF-CEM leukemia) [µM] | GI50 (HS 578T breast) [µM] | GI50 (HOP-62 NSCLC) [µM] | GI50 (RXF 393 renal) [µM]
1 | CCc1n[nH]c(=O)n1N=C(c1ccccc1)c1ccccc1 | > 100 | > 100 | > 100 | > 100 | > 100 | > 100 | > 100 | > 100 | > 100 | – | – | – | – | – | – | –
2 | COc1cc(CC(=O)c2cc3c(cc2-c2ccccc2)OCO3)cc(OC)c1OC | > 100 | > 100 | > 100 | – | > 100 | > 100 | – | > 100 | > 100 | > 100 | – | – | – | – | – | –
3 | CCSc1[nH]c(NC(=NC(C)C)NC(=O)c2ccccc2)c(C(N)=O)c1C(N)=O | > 10 | > 10 | > 10 | > 10 | – | > 10 | – | – | > 10 | > 10 | – | – | – | – | – | –
4 | Nc1ccn(CCCC(c2ccccc2)P(=O)(O)O)c(=O)n1 (centres undefined) | > 100 | > 100 | > 100 | – | > 100 | > 100 | – | > 100 | – | > 100 | – | – | – | – | – | –
5 | COC(=O)C1CCCN1C(=O)OC(C)(C)C (centres undefined) | > 100 | > 100 | > 100 | > 100 | > 100 | > 100 | – | > 100 | > 100 | > 100 | – | – | – | – | – | –
6 | O=C1C(=Cc2ccc([N+](=O)[O-])o2)C(=O)N(CCc2ccccc2)S(=O)(=O)N1CCc1ccccc1 | > 100 | 30.2 | > 100 | – | 31.4 | > 100 | – | – | 34.1 | > 100 | – | – | – | – | – | –
7 | CN(C)C1(c2cc3ccccc3s2)CCCCC1 | > 100 | > 100 | > 100 | > 100 | > 100 | 0.0223 | – | > 100 | 84.6 | 57 | – | – | – | – | – | –
8 | COc1ccc2nc3c([N+](=O)[O-])ccc(NCCCN(C)C)c3c(N)c2c1 | 2.85 | 2.62 | 2.31 | 3.09 | 3 | 1.26 | 4.79 | 3.89 | 2.81 | – | – | – | – | – | – | –
9 | O=C(CSc1nnc(-c2ccc(N=Cc3ccc(Cl)cc3)cc2)o1)Nc1cccc([N+](=O)[O-])c1 | – | > 100 | > 100 | – | – | > 100 | – | > 100 | > 100 | – | – | – | – | – | – | –
10 | Cn1c(=O)oc2cc(C(=S)N3CCCCC3)ccc21 | > 100 | > 100 | > 100 | > 100 | > 100 | > 100 | > 100 | > 100 | > 100 | – | – | – | – | – | – | –
11 | COc1ccc(N2C(=O)C3C=CC(n4[nH]c(=O)n(Cc5ccccc5)c4=O)CC3C2=O)cc1 (centres undefined) | > 100 | > 100 | > 100 | – | > 100 | > 100 | – | > 100 | > 100 | > 100 | – | – | – | – | – | –
12 | O=c1cc(NNc2cccc(F)c2)[nH]c(=S)[nH]1 | > 100 | > 100 | > 100 | > 100 | > 100 | – | > 100 | > 100 | – | > 100 | – | – | – | – | – | –
13 | Nc1nc(N)c2nc(CNc3ccc(C(=O)NC(CCNC(=O)c4ccccc4C(=O)O)C(=O)O)cc3)cnc2n1 (centres undefined) | > 100 | > 100 | > 100 | > 100 | > 100 | > 100 | > 100 | > 100 | > 100 | – | 0.0358 | 0.0072 | 0.0065 | 0.49 | 0.0635 | 0.967
14 | O=C1C(Cl)C(c2ccc([N+](=O)[O-])cc2)N1n1cnc2ccccc2c1=O (centres undefined) | > 100 | > 100 | > 100 | – | > 100 | > 100 | – | > 100 | 72.1 | > 100 | – | – | – | – | – | –
15 | COc1cc(/C=C/C2=NN(c3cccc(S(=O)(=O)O)c3)C3(C2)SCC(=O)N3c2nc3ccccc3s2)cc(OC)c1OC (centres undefined) | > 100 | > 100 | > 100 | > 100 | – | 75.1 | > 100 | – | > 100 | > 100 | – | – | – | – | – | –
16 | COc1cc2nc3n(c(=O)c2cc1OC)CCCCC3 | > 100 | > 100 | > 100 | > 100 | > 100 | > 100 | > 100 | > 100 | > 100 | – | – | – | – | – | – | –
17 | O=C1C=CC(=O)[C@H]2C3C=CC(C4C3C3(Cl)C(Cl)=C(Cl)[C@]4(Cl)C3(Cl)Cl)[C@@H]12 (some centres undefined) | 18.4 | 16.6 | 12.2 | 16.7 | 8.98 | 16.2 | 31.2 | 31.1 | 13.8 | – | – | – | – | – | – | –
18 | COc1ccc(C2NC3=C(CCCC3)N2)cc1 | > 100 | > 100 | > 100 | – | > 100 | > 100 | – | > 100 | – | > 100 | – | – | – | – | – | –
19 | NNC(=S)NN/C=C(\C=Nc1ccccc1)[N+](=O)[O-] | > 100 | – | > 100 | – | > 100 | – | – | > 100 | > 100 | > 100 | – | – | – | – | – | –
20 | Cc1csc2c(=O)n(COCc3ccccc3)c(=O)[nH]c12 | > 100 | – | > 100 | > 100 | > 100 | > 100 | > 100 | > 100 | > 100 | – | – | – | – | – | – | –
21 | Cc1cc2c(cc1-c1cc3c(cc1C)C(C(C)C)=C(O)C(=O)/C3=C\Nc1ccccn1)/C(=C/Nc1ccccn1)C(=O)C(O)=C2C(C)C | > 100 | > 100 | – | > 100 | > 100 | > 100 | > 100 | – | > 100 | 60.2 | – | – | – | – | – | –
22 | Cc1cc(=O)[nH]c(NNC(C#N)c2ccc(N(C)C)cc2)n1 (centres undefined) | > 100 | > 100 | > 100 | – | > 100 | > 100 | – | > 100 | > 100 | – | – | – | – | – | – | –
23 | COc1cc(CC2C(=O)OCC2[C@@H](OC(C)=O)c2ccc3c(c2)OCO3)c(Br)c(OC)c1OC (some centres undefined) | > 100 | > 100 | > 100 | – | > 100 | > 100 | – | > 100 | > 100 | > 100 | – | – | – | – | – | –
24 | CCC1OC2C(CC=C(C)C)=C3OC(C)(O)C(C)(CC)C(=O)C3=C3OC(=O)C=C1C32 (centres undefined) | – | > 100 | – | 41.1 | – | > 100 | – | – | – | > 100 | – | – | – | – | – | –
25 | O=C1NC2OC(CO)C(O)C(O)C2O1 (centres undefined) | > 100 | > 100 | > 100 | – | > 100 | > 100 | – | > 100 | – | > 100 | – | – | – | – | – | –
